# pIC50: −log10 of the molar value. Calls of active or inactive are those of the source. No cut-off for these calls is given here.
# Key:
# [1] = Growth inhibition of human CEM/VLB500 cells after 3 days by resazurin assay; format: functional; settings: CEM/VLB500, 72 h
# Cytochrome P450 2A6 = molecular target: T1, Cytochrome P450 2A6 (Homo sapiens, UniProt P11509); assay: Inhibition of human CYP2A6 expressed in insect microsome after 15 mins; format: ADME, microsomes
# T1 sequence (P11509 whole entry): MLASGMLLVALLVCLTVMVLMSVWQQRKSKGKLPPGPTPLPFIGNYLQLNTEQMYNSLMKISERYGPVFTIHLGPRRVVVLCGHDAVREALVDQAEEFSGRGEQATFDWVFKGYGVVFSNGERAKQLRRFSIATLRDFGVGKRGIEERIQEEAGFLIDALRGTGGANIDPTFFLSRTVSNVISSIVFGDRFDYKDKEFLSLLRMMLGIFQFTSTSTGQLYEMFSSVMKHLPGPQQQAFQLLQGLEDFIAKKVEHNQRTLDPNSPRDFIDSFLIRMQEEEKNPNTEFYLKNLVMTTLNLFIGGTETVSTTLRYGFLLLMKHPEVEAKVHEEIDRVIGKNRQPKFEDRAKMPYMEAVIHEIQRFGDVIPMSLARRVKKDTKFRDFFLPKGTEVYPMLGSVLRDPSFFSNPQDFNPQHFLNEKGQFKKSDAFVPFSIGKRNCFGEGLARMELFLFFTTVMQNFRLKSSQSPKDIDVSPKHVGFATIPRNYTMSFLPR
# Cytochrome P450 2C8 = molecular target: T2, Cytochrome P450 2C8 (Homo sapiens, UniProt P10632); assay: Inhibition of human CYP2C8 expressed in insect microsome after 30 mins; format: ADME, microsomes
# T2 sequence (P10632 whole entry): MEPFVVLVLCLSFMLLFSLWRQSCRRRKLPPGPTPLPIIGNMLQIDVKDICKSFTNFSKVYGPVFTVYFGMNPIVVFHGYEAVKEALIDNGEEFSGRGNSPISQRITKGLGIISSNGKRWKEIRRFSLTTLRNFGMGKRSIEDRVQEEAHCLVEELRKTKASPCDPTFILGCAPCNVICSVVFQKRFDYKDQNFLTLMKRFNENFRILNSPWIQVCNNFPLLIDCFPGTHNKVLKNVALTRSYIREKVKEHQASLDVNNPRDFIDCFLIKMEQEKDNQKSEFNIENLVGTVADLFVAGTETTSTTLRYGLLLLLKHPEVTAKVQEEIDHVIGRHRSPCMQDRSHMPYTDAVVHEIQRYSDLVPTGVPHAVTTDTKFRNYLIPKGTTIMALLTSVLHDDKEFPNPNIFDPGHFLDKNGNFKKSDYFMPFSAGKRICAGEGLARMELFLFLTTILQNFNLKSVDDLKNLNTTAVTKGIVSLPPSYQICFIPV
# Cytochrome P450 3A4 = Cytochrome P450 3A4 (Homo sapiens, UniProt P08684); assay: Inhibition of human CYP3A4 expressed in insect microsome using 7-benzyloxy-4-trifluoromethylcoumarin substrate after 30 mins; format: ADME, microsomes
# Cytochrome P450 1A2 = molecular target: T3, Cytochrome P450 1A2 (Homo sapiens, UniProt P05177); assay: Inhibition of human CYP1A2 expressed in insect microsome after 15 mins; format: ADME, microsomes
# T3 sequence (P05177 whole entry): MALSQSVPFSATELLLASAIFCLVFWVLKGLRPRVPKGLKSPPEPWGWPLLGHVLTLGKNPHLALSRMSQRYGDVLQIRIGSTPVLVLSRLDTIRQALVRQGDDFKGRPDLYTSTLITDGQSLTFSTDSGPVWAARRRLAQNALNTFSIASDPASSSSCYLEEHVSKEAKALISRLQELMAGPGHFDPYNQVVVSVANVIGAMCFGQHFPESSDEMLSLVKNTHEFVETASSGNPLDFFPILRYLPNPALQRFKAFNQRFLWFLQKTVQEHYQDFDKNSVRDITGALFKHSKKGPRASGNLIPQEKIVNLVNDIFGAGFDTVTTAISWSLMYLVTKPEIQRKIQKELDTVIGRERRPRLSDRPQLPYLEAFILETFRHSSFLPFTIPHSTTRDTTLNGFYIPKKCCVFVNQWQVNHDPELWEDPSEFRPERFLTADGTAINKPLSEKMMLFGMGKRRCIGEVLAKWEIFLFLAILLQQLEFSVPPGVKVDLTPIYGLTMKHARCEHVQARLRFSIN
# Cytochrome P450 2C19 = Cytochrome P450 2C19 (Homo sapiens, UniProt P33261); assay: Inhibition of human CYP2C19 expressed in insect microsome after 30 mins; format: ADME, microsomes
# Cytochrome P450 2C9 = Cytochrome P450 2C9 (Homo sapiens, UniProt P11712); assay: Inhibition of human CYP2C9 expressed in insect microsome after 45 mins; format: ADME, microsomes
# Cytochrome P450 2E1 = Cytochrome P450 2E1 (Homo sapiens, UniProt P05181); assay: Inhibition of human CYP2E1 expressed in insect microsome after 45 mins; format: ADME, microsomes
# Cytochrome P450 2D6 = Cytochrome P450 2D6 (Homo sapiens, UniProt P10635); assay: Inhibition of human CYP2D6 expressed in insect microsome after 30 mins; format: ADME, microsomes
# Cytochrome P450 2B6 = molecular target: T4, Cytochrome P450 2B6 (Homo sapiens, UniProt P20813); assay: Inhibition of human CYP2B6 expressed in insect microsome after 30 mins; format: ADME, microsomes
# T4 sequence (P20813 whole entry): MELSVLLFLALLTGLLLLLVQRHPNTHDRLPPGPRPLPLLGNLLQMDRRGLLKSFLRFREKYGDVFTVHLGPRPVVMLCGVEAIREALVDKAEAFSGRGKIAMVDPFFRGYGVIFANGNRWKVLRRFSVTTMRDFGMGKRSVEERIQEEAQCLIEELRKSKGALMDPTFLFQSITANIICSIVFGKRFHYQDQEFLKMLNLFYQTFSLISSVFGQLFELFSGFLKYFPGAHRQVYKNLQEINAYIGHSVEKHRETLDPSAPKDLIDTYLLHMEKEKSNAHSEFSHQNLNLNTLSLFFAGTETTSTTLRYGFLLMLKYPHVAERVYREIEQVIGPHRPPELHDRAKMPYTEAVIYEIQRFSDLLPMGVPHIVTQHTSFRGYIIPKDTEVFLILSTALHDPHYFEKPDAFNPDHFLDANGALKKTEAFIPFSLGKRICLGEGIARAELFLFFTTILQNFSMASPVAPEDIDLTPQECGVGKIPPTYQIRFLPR
# CEM/VLB500 = assay: Growth inhibition of human CEM/VLB500 cells at 1 uM after 3 days by resazurin assay; format: functional, cell-based
# Chain of Cytochrome P450 2C9 (P11712 whole entry): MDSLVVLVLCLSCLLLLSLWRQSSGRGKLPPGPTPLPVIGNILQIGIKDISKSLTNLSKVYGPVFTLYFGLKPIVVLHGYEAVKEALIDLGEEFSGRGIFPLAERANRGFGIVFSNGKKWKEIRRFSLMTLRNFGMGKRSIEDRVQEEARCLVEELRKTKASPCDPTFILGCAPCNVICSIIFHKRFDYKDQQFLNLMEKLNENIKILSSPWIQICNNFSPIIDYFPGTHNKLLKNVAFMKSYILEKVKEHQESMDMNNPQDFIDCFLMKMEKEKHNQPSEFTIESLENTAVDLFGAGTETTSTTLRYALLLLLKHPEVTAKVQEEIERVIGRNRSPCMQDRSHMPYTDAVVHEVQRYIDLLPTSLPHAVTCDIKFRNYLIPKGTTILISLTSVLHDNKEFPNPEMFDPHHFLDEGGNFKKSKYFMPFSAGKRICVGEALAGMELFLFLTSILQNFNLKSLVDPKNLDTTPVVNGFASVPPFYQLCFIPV
# Chain of Cytochrome P450 3A4 (P08684 whole entry): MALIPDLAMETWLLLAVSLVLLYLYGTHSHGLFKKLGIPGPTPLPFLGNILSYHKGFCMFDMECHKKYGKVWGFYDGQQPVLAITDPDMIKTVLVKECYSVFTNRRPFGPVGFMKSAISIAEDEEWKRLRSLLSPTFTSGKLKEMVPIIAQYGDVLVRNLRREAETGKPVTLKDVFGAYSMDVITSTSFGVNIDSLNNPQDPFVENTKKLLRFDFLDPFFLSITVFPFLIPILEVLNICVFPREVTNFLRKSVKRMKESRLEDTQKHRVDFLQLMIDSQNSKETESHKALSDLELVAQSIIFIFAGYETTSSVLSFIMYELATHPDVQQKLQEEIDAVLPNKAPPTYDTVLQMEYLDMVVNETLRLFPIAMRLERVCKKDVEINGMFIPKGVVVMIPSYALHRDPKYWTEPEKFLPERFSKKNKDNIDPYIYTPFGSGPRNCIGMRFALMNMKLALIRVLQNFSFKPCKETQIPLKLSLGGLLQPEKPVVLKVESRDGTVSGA
# Chain of Cytochrome P450 2D6 (P10635 whole entry): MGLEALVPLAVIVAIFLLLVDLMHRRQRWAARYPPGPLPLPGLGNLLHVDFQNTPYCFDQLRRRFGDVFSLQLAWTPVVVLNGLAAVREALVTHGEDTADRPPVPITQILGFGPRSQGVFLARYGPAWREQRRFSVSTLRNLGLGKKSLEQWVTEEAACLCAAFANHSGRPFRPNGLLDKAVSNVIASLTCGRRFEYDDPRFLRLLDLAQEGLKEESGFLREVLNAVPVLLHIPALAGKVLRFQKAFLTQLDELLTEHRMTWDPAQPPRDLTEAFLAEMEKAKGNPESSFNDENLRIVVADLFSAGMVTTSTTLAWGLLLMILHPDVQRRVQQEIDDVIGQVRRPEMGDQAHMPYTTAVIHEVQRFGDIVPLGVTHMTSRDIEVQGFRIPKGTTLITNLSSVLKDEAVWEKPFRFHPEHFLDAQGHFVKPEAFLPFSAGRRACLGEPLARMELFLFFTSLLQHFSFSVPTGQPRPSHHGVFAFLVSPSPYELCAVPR
# Chain of Cytochrome P450 2E1 (P05181 whole entry): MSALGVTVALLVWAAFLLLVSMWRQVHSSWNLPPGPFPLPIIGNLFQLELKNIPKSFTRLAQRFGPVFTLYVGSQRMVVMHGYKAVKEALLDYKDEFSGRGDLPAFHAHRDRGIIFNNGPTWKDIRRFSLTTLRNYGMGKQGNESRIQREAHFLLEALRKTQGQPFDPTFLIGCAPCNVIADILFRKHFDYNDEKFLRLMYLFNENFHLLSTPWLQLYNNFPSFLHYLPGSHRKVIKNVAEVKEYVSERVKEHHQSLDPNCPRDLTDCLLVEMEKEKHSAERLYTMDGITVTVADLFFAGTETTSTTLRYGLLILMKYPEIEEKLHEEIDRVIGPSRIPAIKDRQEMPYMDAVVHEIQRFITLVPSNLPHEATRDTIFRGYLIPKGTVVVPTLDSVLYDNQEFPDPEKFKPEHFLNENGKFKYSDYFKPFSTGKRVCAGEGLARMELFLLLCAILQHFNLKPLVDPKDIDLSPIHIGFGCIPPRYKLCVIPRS
# Chain of Cytochrome P450 2C19 (P33261 whole entry): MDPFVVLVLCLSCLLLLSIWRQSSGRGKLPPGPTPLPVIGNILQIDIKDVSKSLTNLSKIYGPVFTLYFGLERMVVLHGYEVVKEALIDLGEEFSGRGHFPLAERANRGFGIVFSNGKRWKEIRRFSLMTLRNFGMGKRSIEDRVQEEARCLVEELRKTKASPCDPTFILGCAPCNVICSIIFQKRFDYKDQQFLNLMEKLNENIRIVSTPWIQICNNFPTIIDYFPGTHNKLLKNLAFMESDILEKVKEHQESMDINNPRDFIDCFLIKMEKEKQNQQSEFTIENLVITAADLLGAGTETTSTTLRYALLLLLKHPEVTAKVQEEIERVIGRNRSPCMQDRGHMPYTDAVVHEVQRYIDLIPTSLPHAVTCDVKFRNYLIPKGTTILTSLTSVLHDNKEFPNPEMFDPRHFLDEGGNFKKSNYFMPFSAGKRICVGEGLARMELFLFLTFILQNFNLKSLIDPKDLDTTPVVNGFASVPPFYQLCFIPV
pIC50 (Cytochrome P450 2A6),pIC50 (Cytochrome P450 2C8),pIC50 (Cytochrome P450 3A4),pIC50 (Cytochrome P450 1A2),pIC50 (Cytochrome P450 2C19),pIC50 (Cytochrome P450 2C9),pIC50 (Cytochrome P450 2E1),pIC50 (Cytochrome P450 2D6),pIC50 (Cytochrome P450 2B6),Compound,GI50 [1],Activity (CEM/VLB500)
–,–,–,–,–,–,–,–,–,COc1ccc(CCN(C)CCC[C@@](C#N)(c2ccc(OC)c(OC)c2)C(C)C)cc1OC,> 15 µM,–
–,–,–,–,–,–,–,–,–,O=C(Nc1ccccc1C(=O)N[C@@H]1CCCC[C@@H]1N1CCN(c2ccccc2)CC1)c1cnc2ccccc2c1 (racemic),11.5 µM,–
< 4.00,5.24,5.79,< 4.00,4.83,5.68,< 4.00,< 4.00,< 4.00,COc1ccc(CCN(C)CCNC(=O)c2ccccc2NC(=O)c2cnc3ccccc3c2)cc1OC,–,–
–,–,–,–,–,–,–,–,–,COc1ccc(CCN2CCC[C@@H]2CNC(=O)c2ccccc2NC(=O)c2cnc3ccccc3c2)cc1OC,> 15 µM,–
< 4.00,4.88,4.69,< 4.00,4.64,< 5.00,< 4.00,< 4.00,< 4.00,COc1ccc(CN2CCN(c3ccc(NC(=O)c4ccccc4NC(=O)c4cnc5ccccc5c4)cc3)CC2)cc1OC,> 15 µM,–
–,5.97,6.71,5.18,6.41,7.01,–,4.76,4.00,COc1ccc(CN2CCN(c3ccc(NC(=O)c4cc(OC)c(OC)cc4NC(=O)c4cnc5ccccc5c4)cc3)CC2)cc1OC,≥ 15 µM,inactive
–,–,–,–,–,–,–,–,–,COc1ccc(CCN2CCC[C@H]2CNC(=O)c2ccccc2NC(=O)c2cnc3ccccc3c2)cc1OC,> 15 µM,–

Compound,pIC50 (Cytochrome P450 2A6),pIC50 (Cytochrome P450 2C8),pIC50 (Cytochrome P450 3A4),pIC50 (Cytochrome P450 1A2),pIC50 (Cytochrome P450 2C19),pIC50 (Cytochrome P450 2C9),pIC50 (Cytochrome P450 2E1),pIC50 (Cytochrome P450 2D6),pIC50 (Cytochrome P450 2B6),GI50 [1],Activity (CEM/VLB500)
COc1cc2c(cc1OC)CN(CCc1ccc(NC(=O)c3cc(OC)c(OC)cc3NC(=O)c3cnc4ccccc4c3)cc1)CC2,< 4.00,4.34,–,–,< 5.00,5.15,< 4.00,4.00,< 4.00,13.5 µM,–

# From ChEMBL document CHEMBL1147947, “In vitro activity of novel dual action MDR anthranilamide modulators with inhibitory activity on CYP-450 (Part 2)” (Bioorg Med Chem, 2007)
